Source: patent US11878975B2, “Substituted indole compounds useful as TLR inhibitors” (BRISTOL-MYERS SQUIBB COMPANY, priority 2017, dated 2024)

Tests used:
Type in all cases: cell-based
[1] = molecular target: T1, human TLR8 (Homo sapiens, UniProt Q9NR97); experiment: TLR8 inhibition reporter assay (HEK-Blue cells, SEAP reporter, R848 stimulation); conditions: HEK-Blue cells overexpressing human TLR8, SEAP reporter, R848 15.9 μM
T1 construct: host or cells: HEK-Blue cells
T1 sequence (Q9NR97 27-1041): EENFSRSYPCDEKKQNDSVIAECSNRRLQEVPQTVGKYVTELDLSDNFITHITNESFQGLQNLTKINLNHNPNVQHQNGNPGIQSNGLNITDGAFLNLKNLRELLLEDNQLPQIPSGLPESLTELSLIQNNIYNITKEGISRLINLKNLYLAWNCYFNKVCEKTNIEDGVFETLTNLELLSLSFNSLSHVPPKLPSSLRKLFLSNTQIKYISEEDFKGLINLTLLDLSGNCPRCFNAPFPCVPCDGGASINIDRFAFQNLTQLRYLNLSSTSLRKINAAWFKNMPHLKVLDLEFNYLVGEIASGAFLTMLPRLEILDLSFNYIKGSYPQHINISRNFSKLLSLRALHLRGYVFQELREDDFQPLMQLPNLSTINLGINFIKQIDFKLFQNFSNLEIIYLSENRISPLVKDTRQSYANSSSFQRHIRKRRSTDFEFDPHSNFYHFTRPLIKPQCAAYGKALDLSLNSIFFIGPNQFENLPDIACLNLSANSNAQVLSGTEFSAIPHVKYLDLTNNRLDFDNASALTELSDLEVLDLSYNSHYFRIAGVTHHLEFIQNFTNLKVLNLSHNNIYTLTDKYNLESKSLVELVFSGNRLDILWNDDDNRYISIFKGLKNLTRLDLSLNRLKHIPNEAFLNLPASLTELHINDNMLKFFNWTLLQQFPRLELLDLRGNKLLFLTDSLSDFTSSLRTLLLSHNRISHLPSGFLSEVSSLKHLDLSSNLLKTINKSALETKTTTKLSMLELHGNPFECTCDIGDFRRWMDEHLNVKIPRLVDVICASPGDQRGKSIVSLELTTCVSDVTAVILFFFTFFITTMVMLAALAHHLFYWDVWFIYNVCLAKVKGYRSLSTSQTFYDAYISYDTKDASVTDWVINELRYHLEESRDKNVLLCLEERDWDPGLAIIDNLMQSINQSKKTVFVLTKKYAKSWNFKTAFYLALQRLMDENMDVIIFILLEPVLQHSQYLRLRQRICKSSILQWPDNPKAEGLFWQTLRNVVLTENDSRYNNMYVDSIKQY
In short: (§1)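 SEAP readout after 22 h agonist exposure at 37 °C; final agonist levels were 7.5 μM gardiquimod (TLR7), 15.9 μM R848 (TLR8) and 5 nM ODN2006 (TLR9). Inhibitors, spanning 0.05 nM to 50 μM final, were applied 30 min beforehand.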

[2] = molecular target: T2, human TLR9 (Homo sapiens, UniProt Q9NR96); experiment: TLR9 inhibition reporter assay (HEK-Blue cells, SEAP reporter, ODN2006 stimulation); conditions: HEK-Blue cells overexpressing human TLR9, SEAP reporter, ODN2006 5 nM
T2 construct: host or cells: HEK-Blue cells
T2 sequence (Q9NR96 26-1032): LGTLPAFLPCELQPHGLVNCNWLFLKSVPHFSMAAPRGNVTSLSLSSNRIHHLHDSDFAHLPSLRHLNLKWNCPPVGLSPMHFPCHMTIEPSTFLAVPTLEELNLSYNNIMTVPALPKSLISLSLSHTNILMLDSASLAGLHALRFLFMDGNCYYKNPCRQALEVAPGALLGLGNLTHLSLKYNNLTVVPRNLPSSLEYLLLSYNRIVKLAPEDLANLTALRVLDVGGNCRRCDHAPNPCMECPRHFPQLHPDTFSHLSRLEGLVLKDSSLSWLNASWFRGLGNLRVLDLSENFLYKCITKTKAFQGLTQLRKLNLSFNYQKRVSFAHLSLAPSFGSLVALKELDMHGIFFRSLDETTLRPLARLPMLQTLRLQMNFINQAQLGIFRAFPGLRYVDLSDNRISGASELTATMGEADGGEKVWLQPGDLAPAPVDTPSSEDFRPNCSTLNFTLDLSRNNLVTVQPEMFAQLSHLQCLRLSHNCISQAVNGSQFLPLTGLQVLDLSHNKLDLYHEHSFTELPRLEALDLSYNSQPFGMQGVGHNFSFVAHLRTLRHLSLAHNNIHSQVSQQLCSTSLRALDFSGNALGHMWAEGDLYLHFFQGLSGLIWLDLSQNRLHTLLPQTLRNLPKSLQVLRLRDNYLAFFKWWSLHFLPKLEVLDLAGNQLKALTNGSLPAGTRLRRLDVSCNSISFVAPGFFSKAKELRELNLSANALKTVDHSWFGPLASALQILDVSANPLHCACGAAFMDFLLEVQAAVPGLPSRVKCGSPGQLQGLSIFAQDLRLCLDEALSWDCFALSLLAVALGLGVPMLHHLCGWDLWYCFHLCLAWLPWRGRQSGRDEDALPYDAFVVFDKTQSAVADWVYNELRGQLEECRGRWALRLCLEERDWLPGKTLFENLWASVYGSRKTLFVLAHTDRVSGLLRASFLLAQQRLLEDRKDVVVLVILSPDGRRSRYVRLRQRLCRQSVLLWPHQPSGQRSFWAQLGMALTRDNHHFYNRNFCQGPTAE
In short: as §1

[3] = molecular target: T3, human TLR7 (Homo sapiens, UniProt Q9NYK1); experiment: TLR7 inhibition reporter assay (HEK-Blue cells, SEAP reporter, gardiquimod stimulation); conditions: HEK-Blue cells overexpressing human TLR7, SEAP reporter, gardiquimod 7.5 μM
T3 construct: host or cells: HEK-Blue cells
T3 sequence (Q9NYK1 27-1049): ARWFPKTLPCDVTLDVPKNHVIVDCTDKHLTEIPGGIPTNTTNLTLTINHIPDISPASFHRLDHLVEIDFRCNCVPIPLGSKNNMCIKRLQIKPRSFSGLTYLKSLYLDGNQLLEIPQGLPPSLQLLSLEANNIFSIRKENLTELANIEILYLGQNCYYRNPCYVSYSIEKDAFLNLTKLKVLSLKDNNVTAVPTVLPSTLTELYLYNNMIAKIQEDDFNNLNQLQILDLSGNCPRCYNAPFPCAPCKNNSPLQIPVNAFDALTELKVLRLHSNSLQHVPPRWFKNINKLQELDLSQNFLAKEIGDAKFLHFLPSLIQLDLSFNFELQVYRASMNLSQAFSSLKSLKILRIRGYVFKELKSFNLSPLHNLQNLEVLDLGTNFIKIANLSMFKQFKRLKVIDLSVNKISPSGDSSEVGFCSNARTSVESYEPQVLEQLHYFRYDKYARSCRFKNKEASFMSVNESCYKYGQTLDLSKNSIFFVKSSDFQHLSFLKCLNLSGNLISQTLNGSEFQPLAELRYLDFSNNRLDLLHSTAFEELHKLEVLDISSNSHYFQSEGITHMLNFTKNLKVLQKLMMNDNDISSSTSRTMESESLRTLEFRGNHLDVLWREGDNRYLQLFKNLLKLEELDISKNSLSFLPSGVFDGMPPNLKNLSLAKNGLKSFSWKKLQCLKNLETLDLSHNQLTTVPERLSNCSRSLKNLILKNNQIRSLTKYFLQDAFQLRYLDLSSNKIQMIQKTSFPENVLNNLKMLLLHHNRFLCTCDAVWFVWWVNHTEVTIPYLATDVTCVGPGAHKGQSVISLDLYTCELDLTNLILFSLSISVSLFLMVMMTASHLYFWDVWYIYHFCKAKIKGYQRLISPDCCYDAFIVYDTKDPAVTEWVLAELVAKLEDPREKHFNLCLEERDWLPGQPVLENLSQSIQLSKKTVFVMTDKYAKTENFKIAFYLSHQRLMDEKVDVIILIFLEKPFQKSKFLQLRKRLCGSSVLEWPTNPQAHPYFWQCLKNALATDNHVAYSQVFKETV
In short: as §1

SMILES	IC50 [1] [nM]	IC50 [2] [nM]	IC50 [3] [nM]
COc1cc(-c2[nH]c3ccc(C4CCC(N5CCC[C@H]5C(N)=O)CC4)cc3c2C(C)C)cn2ncnc12 (stereo partly drawn) [Example 31]	6.1	2110	1
COc1cc(-c2[nH]c3ccc(C4CCC(N5CC[C@H](N(C)C)C5)CC4)cc3c2C(C)C)cn2ncnc12 (stereo partly drawn) [Example 32]	0.16	170	0.14
COc1cc(-c2[nH]c3ccc(C4CCC(N5CC[C@H](N(C)C)C5)CC4)cc3c2C(C)C)cn2ncnc12 (stereo partly drawn) [Example 33]	3.4	491	2
COc1cc(-c2[nH]c3ccc(C4CCC(N5CCCC(F)(F)C5)CC4)cc3c2C(C)C)cn2ncnc12 (stereo not drawn) [Example 34]	23	20500	5
COc1cc(-c2[nH]c3ccc(C4CCC(N5CCCC(F)(F)C5)CC4)cc3c2C(C)C)cn2ncnc12 (stereo not drawn) [Example 35]	122	18000	55
COc1cc(-c2[nH]c3ccc(C4CCC(N5C[C@@H](C)O[C@@H](C)C5)CC4)cc3c2C(C)C)cn2ncnc12 (stereo partly drawn) [Example 40]	1.2	2510	0.75
COc1cc(-c2[nH]c3ccc(C4CCC(N5CC(C)OC(C)C5)CC4)cc3c2C(C)C)cn2ncnc12 (stereo not drawn) [Example 41]	7.7	2280	4
COc1cc(-c2[nH]c3ccc(C4CCC(NC5(C)CC5)CC4)cc3c2C(C)C)cn2ncnc12 (stereo not drawn) [Example 42]	1	2610	0.2
COc1cc(-c2[nH]c3ccc(C4CCC(NC5(C)CC5)CC4)cc3c2C(C)C)cn2ncnc12 (stereo not drawn) [Example 43]	13	4370	1
Cc1c(-c2[nH]c3ccc(C4CCC(NC5(C)COC5)CC4)cc3c2C(C)C)cn2ncnc2c1C (stereo not drawn) [Example 48]	0.4	1850	0.55
Cc1cc(-c2[nH]c3ccc(C4CCC(N5CCOCC5)CC4)cc3c2C(C)C)cc(C)n1 (stereo not drawn) [Example 54]	3.3	618	2
Cc1cc(-c2[nH]c3ccc(C4CCC(N5CCOCC5)CC4)cc3c2C(C)C)cc(C)n1 (stereo not drawn) [Example 55]	15	480	8
Cc1cc(-c2[nH]c3ccc(C4CCC(NC5COC5)CC4)cc3c2C(C)C)cn2ncnc12 (stereo not drawn) [Example 57]	8.2	6060	1
Cc1cc(-c2[nH]c3ccc(C4CCC(NC5COC5)CC4)cc3c2C(C)C)cn2ncnc12 (stereo not drawn) [Example 59]	0.88	3140	0.14
Cc1cc(-c2[nH]c3ccc(C4CCC(NC5COC5)CC4)cc3c2C(C)C)cc(C)n1 (stereo not drawn) [Example 60]	1.8	501	0.26
Cc1cc(-c2[nH]c3ccc(C4CCC(NC5COC5)CC4)cc3c2C(C)C)cc(C)n1 (stereo not drawn) [Example 61]	3.9	201	1
CCN(C)C1CCC(c2ccc3[nH]c(-c4cc(C)c5ncnn5c4)c(C(C)C)c3c2)CC1 (stereo not drawn) [Example 62]	6.3	1830	0.98
CCN(C)C1CCC(c2ccc3[nH]c(-c4cc(C)c5ncnn5c4)c(C(C)C)c3c2)CC1 (stereo not drawn) [Example 63]	5.9	5920	0.81
COc1cc(-c2[nH]c3ccc(C4CCC(NC5COC5)CC4)cc3c2C(C)C)cn2ncnc12 (stereo not drawn) [Example 64]	0.87	3030	0.15
COc1cc(-c2[nH]c3ccc(C4CCC(N5CCOCC5)CC4)cc3c2C(C)C)cn2ncnc12 (stereo not drawn) [Example 69]	0.59	1670	0.22
COc1cc(-c2[nH]c3ccc(C4CCC(N5CCNC(=O)C5)CC4)cc3c2C(C)C)cn2ncnc12 (stereo not drawn) [Example 71]	2.7	4410	0.68
COc1cc(-c2[nH]c3ccc(C4CCC(N5CC6(COC6)C5)CC4)cc3c2C(C)C)cn2ncnc12 (stereo not drawn) [Example 73]	0.58	1590	0.32
COc1cc(-c2[nH]c3ccc(C4CCC(N(C)CC(F)F)CC4)cc3c2C(C)C)cn2ncnc12 (stereo not drawn) [Example 74]	13	24500	3
COc1cc(-c2[nH]c3ccc(C4CCC(N(C)CCC(F)(F)F)CC4)cc3c2C(C)C)cn2ncnc12 (stereo not drawn) [Example 75]	2	4760	0.87
COc1cc(-c2[nH]c3ccc(C4CCC(N5CCOCC5)CC4)cc3c2C(C)C)cn2ncnc12 (stereo not drawn) [Example 76]	5.7	2250	1
COc1cc(-c2[nH]c3ccc(C4CCC(N5CCC5)CC4)cc3c2C(C)C)cn2ncnc12 (stereo not drawn) [Example 77]	3.1	1920	1
COc1cc(-c2[nH]c3ccc(C4CCC(N5CCNC(=O)C5)CC4)cc3c2C(C)C)cn2ncnc12 (stereo not drawn) [Example 78]	32	16800	3
